This note sets out measurements from a melting point compilation (Tetko et al.; mined from patent text by program, amines drawn as free bases though some values may be those of a salt).

The structures appear in SMILES notation. A value given as a limit tells only on which side of the number the result lay.

For orientation: melting point means the temperature of the solid-liquid transition. In the case of `C(=NC(c1ccccc1)c1ccccc1)c1ccccc1`, the melting point lay in the range of 99 to 101 °C.
In the case of `Cc1c(Nc2c(C#N)cnc3sc(CCC(=O)N4CCCC4)cc23)ccc2[nH]ccc12`, the melting point stood at 175 °C.
To `CC1(C)CC(SCc2c(Cl)nn(C(F)F)c2C(F)(F)F)=NO1` belongs 89 to 90 °C; to `CC1NCC(CO)CC1OC(=O)c1ccncc1` (stereo not given), 126 to 128 °C.
With `CC(C)CCCCNC(=O)n1sc2ccccc2c1=O` the figure was 49 to 51 °C; with `COC(=O)[C@H](CS)NC(=O)[C@H](CO)NC(=O)OC(C)(C)C`, 72 to 74 °C; with `c1ccc(Sc2cc3cc4cc5ccccc5cc4cc3cc2Sc2ccccc2)cc1`, over 260 °C.
Take `Cc1ccc(Nc2nc(-c3ccccc3)c(-c3nc4ccccc4c(=O)n3-c3ccc(Cl)cc3)s2)cc1`: the melting point was in the range of 225 to 227 °C.
To `COc1ccc(-c2cc(=O)n(C3CCCC3)nc2-c2ccc(OC)cc2)cc1` belongs 141 to 142 °C.
To `O=C(N[C@H](Cc1ccc(C(F)(F)F)cc1)[C@@H](O)c1ccc(Oc2ccccc2)cc1)c1ccc(F)c2ccccc12` (racemic) belongs 184 to 185 °C; to `CO[C@@H](CCc1nc(-c2ccccc2)oc1C)c1ccc(C=C2SC(=O)NC2=O)cc1`, 205 to 206 °C.
With `CCC(C)=NNC(=O)c1cccc2nnsc12` the figure was 159 to 162 °C; with `COc1ccc(-c2nc(-c3cccs3)c[nH]2)cc1C`, 110 to 114 °C.
Molecule `C[C@H](Cn1nnc2ccccc21)n1cnc2cc3c(=O)n(C4CC4)nnc3cc2c1=O` registered a melting point of 103 to 105 °C.
With `CC(=O)Nc1cc2c3c(c1)[nH]c(=O)n3C[C@H](C)N(CC1CC1)C2` the figure was 244 °C; with `COc1ccccc1CNC(=O)C(=O)NCCc1ccccn1`, 118 to 119 °C; with `CC1C(=NO)CC2(O)C3Cc4ccc(O)c5c4C2(CCN3C)C1O5` (stereo not given), 115 to 116 °C.
To `Cc1sc2nc(SCCCN3CCN(c4ccc5ccccc5n4)CC3)[nH]c(=O)c2c1C` belongs 225 to 226 °C; to `NCc1ccc2c(c1)ncn2-c1cccc(-c2ccccn2)c1`, 224 to 229 °C.
On to `COc1ccc(S(=O)(=O)C2(C(=O)NO)CCCC2)cc1`, for which the melting point lay within 89 to 91 °C.
With `CCC(C)C(C)C(=O)Nc1ccc2c(C)cn3c(=O)c(C(=O)Nc4nnn[nH]4)cnc3c2c1` (stereo not given) the figure was over 300 °C.
On to `CC(C(=O)O)c1ccc(-c2cn3cccnc3n2)cc1` (stereo not given), for which the melting point stood at 248 °C.
With `O=[N+]([O-])c1ccc2oc(CO)cc2c1` the figure was 115 to 116 °C; with `CN(C)S(=O)(=O)Oc1ccc2c(c1)CCC1C2CCC2(C)C(O)C(O)CC12` (stereo not given), 180 to 181 °C.
With `COC(=O)c1c(Oc2ccccc2[N+](=O)[O-])c2ccccc2n1C` the figure was 119 to 121 °C; with `COc1ccc(C(C[N+](=O)[O-])SC(=S)N(C)C)cc1` (stereo not given), 86 to 89 °C.
`OC[C@H]1OC[C@@H](n2cnc3cc(Cl)c(Cl)cc32)C[C@@H]1O` had a melting point of 197 °C.
In turn, `CCCS(=O)(=O)Nc1ccc(C(=O)CC#N)cc1` had a melting point of 150 to 151 °C.
Consider `COC(=O)c1ccc(-c2nc(O)c(C)s2)cc1`, for which the melting point was in the range of 219 to 220 °C.
With `COC(=O)Cc1ccc(O)c(C23CC4CC(CC(C4)C2)C3)c1` the figure was 185 to 186 °C; with `CN1CCN(CC(=O)NC2(c3ccc(Cl)cc3)C(=O)Nc3cc(Cl)cc(Cl)c32)CC1` (stereo not given), 248 to 251 °C; with `CCCOc1ccccc1CN1N=C(CCC)C(=CNc2ccccc2CC)C1=O`, 75.2 °C.
The molecule `O=C(O)C1Oc2ccc(Cl)cc2C(c2ccccc2)(c2ccccc2)O1` (stereo not given) showed a melting point of 226 °C.
With `CCCc1nc(Nc2ccc(F)c(Cl)c2)nc(NC2CCN(S(C)(=O)=O)CC2)n1` the figure was 86 to 87 °C; with `CS(=O)(=O)c1ccc(/C(=C2\CCSC2=O)c2ccc(Cl)cc2)cc1`, 183 °C; with `N#Cc1c(N2CCNCC2)c(F)cc2c(=O)c(C(=O)O)cn(C3CC3)c12`, over 300 °C.
The molecule `CC(=O)Nc1c(C#N)c(C#N)nn1-c1c(Cl)cc(C(F)(F)F)cc1Cl` registered a melting point of 208 to 209 °C.
With `O=[N+]([O-])c1ccc(F)c(-c2cccnc2)c1F` the figure was 68 to 70 °C; with `COc1ccc(-c2ncc(-c3cnc(-c4ccccc4)[nH]3)cn2)cc1OC`, 231 °C.
As to `CN(CCO)CCn1nc2c3c(c(NCCNCCO)ccc31)C(=O)c1c(O)ccc(O)c1-2`, the melting point lay within 191 to 194 °C.
To `CCCCn1cc(C(=O)OCC)c(=O)c2oc3ccc(Cl)cc3c(=O)c21` belongs 226 to 228 °C.
In turn, `O=C(/C=C/C=C(c1ccc(F)cc1)c1ccc(F)cc1)NCCCCc1cccnc1` had a melting point of 155 to 156 °C.
To `COc1ccc(NC2(C#N)CCCCC2)cn1` belongs 121 to 123 °C.
With `CON=C(C(C)=NN=Cc1ccccc1-n1c(OC)nn(C)c1=O)c1cccc(C(F)(F)F)c1` the figure was 157 to 161 °C.
With `COC(=O)c1cccc(NC=O)n1` the figure was 134 to 136 °C; with `CN(C)S(=O)(=O)c1nnc(N)s1`, 188 to 190 °C; with `CCCCC(=N)NC(=S)Nc1ccc(Cl)cc1`, 164 to 166 °C.
The molecule `O=CCCc1cnc(-c2ccccc2)s1` had a melting point of 192 °C.
In the case of `Cc1cc(N)nc(CCCCNC(=O)Cc2ccc3c(c2)OCO3)c1`, the melting point was in the range of 56 to 58 °C.
Turning to `O=c1[nH]c(N2CCOCC2)nc2c1C=CCC2`, the melting point lay in the range of 228 to 230 °C.
On to `CC(C)Cn1c(CNC(=O)OC(C)(C)C)c(-c2ccccc2)c2cc(/C=C/C(N)=O)ccc2c1=O`, for which the melting point is 146 to 147 °C.
To `O=C(COc1ccccc1Br)c1ccccc1` belongs 112 to 113 °C.
With `CC(=O)n1cc(O)c2cc(Cl)ccc21` the figure was 186 to 188 °C; with `Cc1c(/C=C/C(=O)c2ccccc2)ncn1C(c1ccccc1)(c1ccccc1)c1ccccc1`, 209 to 211 °C; with `Cc1nc(Nc2ccccc2)sc1-c1ccncc1`, 168 to 170 °C.
To `Cc1nc2cc(NC(=O)c3cc4cc(Cl)ncc4n3Cc3cccc(F)c3)ccc2n1C` belongs 240 to 242 °C.
With `CCCCc1ncc(/C=C/C=C/C(=O)O)n1Cc1ccccc1Cl`, the melting point was 219 to 220 °C.
To `COC(=O)C1Cc2c(ncn2Cc2ccccc2)CN1Cc1ccccc1` (stereo not given) belongs 91 to 93 °C; to `Cc1sc2[nH]c(=O)n(Cc3ccc(Cl)cc3)c(=O)c2c1C`, 291 to 292 °C; to `NCc1noc(-c2nn(Cc3ccccc3)c3ccccc23)n1`, 118 to 119 °C.
`CN(CCCl)S(=O)(=O)c1ccc2ccccc2c1` registered a melting point of 101 °C.
Take `CCCCc1c(C(=O)C(Cl)(Cl)Cl)c2ccccc2n1C`: the melting point fell in the range of 112 to 115 °C.
As for `COc1ccc(N2C(=O)N(c3cccc(C#N)c3)c3nc(Nc4ccccc4)ncc3C2C)cc1` (stereo not given), the melting point lay in the range of 224 to 228 °C.
With `Cc1ccccc1NC(=NC#N)NC(NC(=O)Cc1ccc2c(c1)OCO2)C(C)(C)C` (stereo not given) the figure was 152 to 153 °C; with `O=C(Nc1cccc(Nc2nc(-c3cccnc3)cs2)c1)c1ccc(/C=C/ONO)s1`, 206 °C.
In turn, `COc1ccc2c(c1)C1(CCCCc3ccccc31)NC2=O` (stereo not given) gave a melting point of 189 to 190 °C.
For `CCN1c2ccccc2N(C)C(=O)c2cccnc21`, the melting point is 106 to 111 °C.
With `CCOC(=O)Nc1nc(Cc2ccccc2)c(C(=O)c2sc(NC(=O)OCC)nc2Cc2ccccc2)s1` the figure was 145 to 146 °C; with `COc1cc2c(cc1OCc1ccccc1)CCN(Cc1cccc([N+](=O)[O-])c1)C2`, 109 to 110 °C; with `NC(=O)NCCSCC(=O)O`, 135 °C.
To `CSc1ccc(CC2C(C)=C(CCN(O)C(N)=O)c3ccccc32)cc1` (stereo not given) belongs 163 to 164 °C.
To `Cn1ccc2cc(N3Cc4ccc(O)cc4C3=O)ccc21` belongs 230 to 235 °C.
On to `CCC(C)(C)c1ccc(OCC(=O)O)c(C(C)(C)C)c1`, for which the melting point was 140 to 144 °C.
With `CC(C)C(C(=O)O)c1ccc(OC(F)(F)C(F)F)cc1` (stereo not given) the figure was 92 to 97 °C; with `CCN(CC)c1ccc(NC(=S)N(C)N)cn1`, 147 to 149 °C.
To `COc1ccc(F)c(/C=C/CN2C(=O)c3ccccc3C2=O)c1` belongs 118 °C; to `Cn1c(=O)[nH]c(=O)n(-c2ccc(F)cc2Cl)c1=O`, 225 to 228 °C; to `CCCCNC(=O)NS(=O)(=O)c1cc2c(cc1OC)OCC(NC(=O)c1cc(Cl)ccc1OC)C2` (stereo not given), 185 to 186 °C.
For the molecule `CN1C(=O)C(NC(=O)Nc2cccc(I)c2)N=C(N2CC3CCC(CC3)C2)c2ccccc21` (single isomer, unassigned; (+)), the melting point was 220 to 222 °C.
`COc1ccc(F)c(C)c1NC(=O)OC(C)(C)C` had a melting point of 81 to 82 °C.
To `CN(CCO)C(=O)Cc1ccccc1Cl` belongs 77 °C; to `COC(=O)c1ccc(-c2ccccc2CBr)cc1`, 80 to 81 °C; to `CC(C)(C)OC(=O)NCCCCCC(=O)Nc1cccnc1`, 96 to 98 °C.
In turn, `COc1cc(-c2nc3ccccc3n2Cc2cccc(Cl)c2)cc(OC)c1OC` had a melting point of 83 °C.
Molecule `CCOc1cc(=O)[nH]c2ccccc12` gave a melting point of 223 to 226 °C.
`CCCCCCCCCCCCCCCCc1c(O)c(CN(C)C(=O)Oc2cccc([N+](=O)[O-])c2)c(CCC)c(O)c1CN(C)C(=O)Oc1cccc([N+](=O)[O-])c1` registered a melting point of 89 to 95 °C.
`O=C(N[C@@H]1C2CCN(CC2)[C@H]1Cc1cccnc1)c1cc2ccccc2o1` came in with a melting point of 134 to 139 °C.
Take `CC(=O)SCSc1cn(C(c2ccccc2)(c2ccccc2)c2ccccc2)nn1`: the melting point lay within 115 to 116 °C.
With `CN1CCc2c([nH]c3ccc(NS(=O)(=O)c4c(Cl)nc5sccn45)cc23)C1` the figure was 232 to 233 °C; with `NCCOc1ccncc1`, 108 to 112 °C.
